Each block holds one molecule with its values, some of them ahead of it. Numbered stars: 1 amine (or outer) side, 2 acyl side, 3 side chain; on linkers, the order of the positions; unused ones are H or OH. Square brackets hold non-standard residues; d marks the D form. Peptide text beside a SMILES is read from it. * marks the point of attachment. 2‑MPUPA = 4-(N′-(2-methylphenyl)urea)phenylacetyl, Cc1ccccc1NC(=O)Nc1ccc(CC(=O)*)cc1; X2 = O=C(Cc1ccc(N[*:1])cc1)[*:2]; NH(2-Me-phenyl) = Cc1ccccc1N*; NH(2-F-phenyl) = Fc1ccccc1N*; Piperidide = C1CCN(*)CC1; PhAc = O=C(Cc1ccccc1)*; NHcHex = C1CCC(N*)CC1; CO = O=C([*:1])[*:2]; NHBn = c1ccc(CN*)cc1; NHPh = c1ccc(N*)cc1; Ahx = NCCCCCC(=O)O; Bn = c1ccc(C*)cc1; X4 = c1ccc(N*)nc1; NHiBu = CC(C)CN*; NHiPr = CC(C)N*
Legend:
VLA4 = target: T1, VLA4 (Homo sapiens, UniProt P05556+P13612); assay: Inhibition of VLA4-dependent adhesion of Ramos cells to BSA-CS1; type: cell-based; conditions: Ramos cells, BSA-CS1 coated wells, 2 mM MnCl2, 30 minutes at room temperature; read-out: IC50
T1 construct: endogenous in cells; host or cells: Ramos cells
T1 sequence (P13612 34-1032): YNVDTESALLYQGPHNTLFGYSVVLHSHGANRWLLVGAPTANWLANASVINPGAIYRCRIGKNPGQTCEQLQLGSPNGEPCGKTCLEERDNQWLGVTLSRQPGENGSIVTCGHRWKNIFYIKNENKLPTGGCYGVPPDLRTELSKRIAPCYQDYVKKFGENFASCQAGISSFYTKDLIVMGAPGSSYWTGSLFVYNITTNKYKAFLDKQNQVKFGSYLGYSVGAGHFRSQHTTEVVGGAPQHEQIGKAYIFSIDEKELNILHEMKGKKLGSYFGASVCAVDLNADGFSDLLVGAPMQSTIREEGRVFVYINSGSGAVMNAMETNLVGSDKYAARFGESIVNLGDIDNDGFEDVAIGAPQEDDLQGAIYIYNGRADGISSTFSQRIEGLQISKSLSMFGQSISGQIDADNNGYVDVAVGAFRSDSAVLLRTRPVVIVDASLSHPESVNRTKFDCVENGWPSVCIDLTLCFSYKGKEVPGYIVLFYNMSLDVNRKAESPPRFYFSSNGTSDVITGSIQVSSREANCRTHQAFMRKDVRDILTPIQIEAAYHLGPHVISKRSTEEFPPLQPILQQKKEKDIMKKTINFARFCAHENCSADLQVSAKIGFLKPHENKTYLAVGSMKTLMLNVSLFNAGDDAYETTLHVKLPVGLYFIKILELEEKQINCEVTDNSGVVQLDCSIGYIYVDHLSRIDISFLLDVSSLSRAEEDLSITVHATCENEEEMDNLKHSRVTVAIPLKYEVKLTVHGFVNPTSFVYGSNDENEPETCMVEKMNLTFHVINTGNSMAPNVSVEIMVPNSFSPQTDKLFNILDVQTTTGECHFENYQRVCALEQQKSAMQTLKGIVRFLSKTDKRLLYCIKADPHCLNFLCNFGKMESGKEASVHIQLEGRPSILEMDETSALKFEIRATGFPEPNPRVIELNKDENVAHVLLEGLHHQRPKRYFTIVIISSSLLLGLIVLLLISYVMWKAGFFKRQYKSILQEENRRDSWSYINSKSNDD
T1 sequence (P05556 21-798): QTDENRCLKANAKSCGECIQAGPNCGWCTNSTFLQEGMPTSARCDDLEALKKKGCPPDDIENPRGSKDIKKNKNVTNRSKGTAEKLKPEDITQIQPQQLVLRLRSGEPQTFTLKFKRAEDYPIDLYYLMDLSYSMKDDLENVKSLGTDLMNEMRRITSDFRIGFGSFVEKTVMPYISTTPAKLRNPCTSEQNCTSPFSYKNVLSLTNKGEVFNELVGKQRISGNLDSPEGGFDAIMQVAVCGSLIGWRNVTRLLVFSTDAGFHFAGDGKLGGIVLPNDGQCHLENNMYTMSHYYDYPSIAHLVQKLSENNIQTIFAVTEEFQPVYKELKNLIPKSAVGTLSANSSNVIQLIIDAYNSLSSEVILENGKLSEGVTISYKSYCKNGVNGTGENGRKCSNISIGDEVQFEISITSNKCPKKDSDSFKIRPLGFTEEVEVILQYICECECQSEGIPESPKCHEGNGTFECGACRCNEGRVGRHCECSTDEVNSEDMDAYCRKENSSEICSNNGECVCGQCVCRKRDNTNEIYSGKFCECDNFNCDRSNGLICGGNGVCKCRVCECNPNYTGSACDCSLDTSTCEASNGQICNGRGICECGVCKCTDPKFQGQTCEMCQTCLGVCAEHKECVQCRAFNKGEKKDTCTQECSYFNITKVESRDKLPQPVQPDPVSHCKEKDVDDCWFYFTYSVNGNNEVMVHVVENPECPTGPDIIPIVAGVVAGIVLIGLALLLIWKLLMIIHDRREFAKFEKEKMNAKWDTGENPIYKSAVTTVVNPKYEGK
Method in brief: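 BCECF-AM-labelled Ramos cells in Tris buffer pH 7.4 with 2 mM MnCl2 were added with compound to wells coated with BSA-conjugated Cys-Tyr-CS1 peptide (1 μg/mL). Cells and compound were incubated for 30 min at room temperature, in triplicate. Inhibition was quantified from bound fluorescence against no-compound controls, with uncoated wells used for nonspecific binding.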

[1] = target: T2, VLA-4 (alpha4beta1 integrin) (UniProt P13612 34-1032; P05556 21-798, limits assumed); assay: Ramos/BSA-CS1 adhesion inhibition
T2 construct: whole, on cells; also called very late antigen-4; CD49d/CD29
T2 sequence (P13612 34-1032 limits assumed, chain 1 of 2): as the sequence (P13612 34-1032) above
T2 sequence (P05556 21-798 limits assumed, chain 2 of 2): as the sequence (P05556 21-798) above
Description: Following labelling, the cells were washed twice in assay buffer (24 mM TRIS, 137 mM NaCl, 2.7 mM KCl, pH 7.4, containing 0.1 BSA and 2mM glucose) to remove any cations originating from the culture medium. The cells were then resuspended in assay buffer to 4 ×10^6 cells/mL and 2 mM MnCl_2 was added to upregulate VLA4 on the surface of the cells.
Immediately prior to running the assay, we removed the BSA blocking solution from the 96-well plates and washed the wells with 100 μL of assay buffer. We then added to each well 25 μL of test cell adhesion inhibitory compound at 2×the final concentration and 25 μL of the labelled Ramos cells. […] Each concentration of compound was tested in triplicate. The compound and cells are allowed to incubate for 30 minutes at room temperature.
Percent binding is calculated by the formula: […]

Molecule: Cc1ccccc1NC(=O)Nc1ccc(CC(=O)N[C@H](C(=O)N[C@@H](CC(=O)O)C(=O)N[C@@H](CC(C)C)C(N)=O)[C@@H](C)O)cc1 [Compound 253]
- IC50 (VLA4): < 50 nM

Molecule: CC[C@H](C)[C@H](NC(=O)[C@H](CC(=O)O)NC(=O)[C@@H](NC(=O)Cc1ccc(NC(=O)Nc2ccccc2C)cc1)[C@@H](C)O)C(N)=O [Compound 255]
- IC50 (VLA4): < 50 nM

Molecule: Cc1ccccc1NC(=O)Nc1ccc(CC(=O)N[C@@H](CCC(=O)O)C(=O)N[C@@H](CC(=O)O)C(=O)N[C@@H](CC(=O)O)C(N)=O)cc1 [Compound 263]
- IC50 (VLA4): < 50 nM

Molecule: Cc1ccccc1NC(=O)Nc1ccc(CC(=O)N[C@@H](CO)C(=O)N[C@@H](CC(=O)O)C(=O)N[C@@H](CC(C)C)C(N)=O)cc1 [Compound 276]
- IC50 (VLA4): < 50 nM

Molecule: Cc1ccccc1NC(=O)Nc1ccc(CC(=O)N[C@@H](CO)C(=O)N[C@@H](CC(=O)O)C(=O)N[C@@H](CCC(=O)O)C(N)=O)cc1 [Compound 279]
- IC50 (VLA4): < 50 nM

Molecule: CC[C@H](C)[C@H](NC(=O)Cc1ccc(NC(=O)Nc2ccccc2C)cc1)C(=O)N[C@@H](CC(=O)O)C(=O)N[C@@H](CC(=O)O)C(N)=O [Compound 286]
- IC50 (VLA4): < 50 nM

Molecule: CC[C@H](C)[C@H](NC(=O)Cc1ccc(NC(=O)Nc2ccccc2C)cc1)C(=O)N[C@@H](CC(=O)O)C(=O)N[C@@H](CCC(=O)O)C(N)=O [Compound 290]
- IC50 (VLA4): < 50 nM

Molecule: CC[C@H](C)[C@H](NC(=O)[C@H](CC(=O)O)NC(=O)[C@H](CCC(N)=O)NC(=O)Cc1ccc(NC(=O)Nc2ccccc2C)cc1)C(N)=O [Compound 300]
- IC50 (VLA4): < 50 nM

Molecule: CSCC[C@H](NC(=O)[C@H](CC(=O)O)NC(=O)[C@H](CCC(N)=O)NC(=O)Cc1ccc(NC(=O)Nc2ccccc2C)cc1)C(N)=O [Compound 303]
- IC50 (VLA4): < 50 nM

Molecule: Cc1ccccc1NC(=O)Nc1ccc(CC(=O)N[C@@H](CC(C)C)C(=O)N[C@@H](CCC(=O)O)C(=O)N[C@@H](CC(=O)O)C(N)=O)cc1 [Compound 310]
- IC50 (VLA4): < 50 nM

Molecule: Cc1ccccc1NC(=O)Nc1ccc(CC(=O)N[C@@H](CC(C)C)C(=O)N[C@@H](CCC(=O)O)C(=O)N[C@H](C(N)=O)C(C)C)cc1 [Compound 311]
- IC50 (VLA4): < 50 nM

Molecule: Cc1ccccc1NC(=O)Nc1ccc(CC(=O)N2CCC[C@H]2C(=O)N[C@@H](CCC(=O)O)C(=O)N[C@H](C(N)=O)C(C)C)cc1 [Compound 313]
- IC50 (VLA4): < 50 nM

Molecule: CSCC[C@H](NC(=O)Cc1ccc(NC(=O)Nc2ccccc2C)cc1)C(=O)N[C@@H](CC(=O)O)C(=O)N[C@H](C(=O)N1CCC[C@H]1C(=O)O)C(C)C [Compound 315] ({NH(2-Me-phenyl)-CO}-[X2]MDVP-OH)
- IC50 (VLA4): < 50 nM

Molecule: CC(C)C[C@H](NC(=O)Cc1ccc(NC(=O)Nc2ccccn2)cc1)C(=O)N[C@@H](CC(=O)O)C(=O)N[C@H](C(=O)N1CCC[C@H]1C(=O)O)C(C)C [Compound 316] ({X4-CO}-[X2]LDVP-OH)
- IC50 (VLA4): < 50 nM

Molecule: CC(C)C[C@H](NC(=O)Cc1ccc(NC(=O)Nc2ccccc2)cc1)C(=O)N[C@@H](CC(=O)O)C(=O)N[C@H](C(=O)N1CCOCC1)C(C)C [Compound 318]
- IC50 (VLA4): < 50 nM

Molecule: CC(C)C[C@H](NC(=O)Cc1ccc(NC(=O)Nc2ccccc2)cc1)C(=O)N[C@@H](CC(=O)O)C(=O)N[C@H](C(=O)NC(C)C)C(C)C [Compound 319]
- IC50 (VLA4): 50 to 10000 nM

Molecule: CC(C)C[C@H](NC(=O)Cc1ccc(NC(=O)Nc2ccccc2)cc1)C(=O)N[C@@H](CC(=O)O)C(=O)N[C@H](C(=O)NC1CCCCC1)C(C)C [Compound 320]
- IC50 (VLA4): 50 to 10000 nM

B1: Compound 152 (peptide)
peptide: Ac-FLDV-OH
- IC50 [1]: > 10000 nM

B2: Compound 2 (peptide)
peptide: {3‑methoxy‑4‑(N'-phenylurea)phenylacetyl}-MDVP-OH
- IC50 [1]: < 50 nM

B3: Compound 167 (peptide)
peptide: LDVM
HELM: PEPTIDE1{[CC(C)(C)OC(=O)[*:2]].L.D.V.M.[CO[*:1]]}$$$$V2.0
SMILES: COC(=O)[C@H](CCSC)NC(=O)[C@@H](NC(=O)[C@H](CC(=O)O)NC(=O)[C@H](CC(C)C)NC(=O)OC(C)(C)C)C(C)C
- IC50 [1]: > 10000 nM

B4: Compound 168 (peptide)
peptide: LDVM
HELM: PEPTIDE1{[O=C(c1ccc2ccccc2n1)[*:2]].L.D.V.M.[CO[*:1]]}$$$$V2.0
SMILES: COC(=O)[C@H](CCSC)NC(=O)[C@@H](NC(=O)[C@H](CC(=O)O)NC(=O)[C@H](CC(C)C)NC(=O)c1ccc2ccccc2n1)C(C)C
- IC50 [1]: 50 to 10000 nM

B5: Compound 186 (peptide)
peptide: LDVM
HELM: PEPTIDE1{[O=C(c1ccc2ccccc2n1)[*:2]].L.D.V.M}$$$$V2.0
SMILES: CSCC[C@H](NC(=O)[C@@H](NC(=O)[C@H](CC(=O)O)NC(=O)[C@H](CC(C)C)NC(=O)c1ccc2ccccc2n1)C(C)C)C(=O)O
- IC50 [1]: > 10000 nM

B6: Compound 146 (peptide)
peptide: {4‑(N'-2-hydroxyphenylurea)phenylacetyl}-MDVP-OH
- IC50 [1]: < 50 nM

B7: Compound 202 (peptide)
peptide: {2‑MPUPA}-K(Ahx)DVP-OH
- IC50 [1]: 50 to 10000 nM

B8: Compound 315 (peptide)
peptide: MDVP
HELM: PEPTIDE1{[Cc1ccccc1NC(=O)Nc1ccc(CC(=O)[*:2])cc1].M.D.V.P}$$$$V2.0
SMILES: CSCC[C@H](NC(=O)Cc1ccc(NC(=O)Nc2ccccc2C)cc1)C(=O)N[C@@H](CC(=O)O)C(=O)N[C@H](C(=O)N1CCC[C@H]1C(=O)O)C(C)C
- IC50 [1]: < 50 nM

The remaining lines, values ahead:

- IC50 (VLA4): 50 to 10000 nM
Molecule: CC(C)C[C@H](NC(=O)Cc1ccc(NC(=O)Nc2ccccc2)cc1)C(=O)N[C@@H](CC(=O)O)C(=O)N[C@H](C(=O)NCc1ccccc1)C(C)C [Compound 321]

- IC50 (VLA4): < 50 nM
Molecule: CC(C)C[C@H](NC(=O)Cc1ccc(NC(=O)Nc2ccccc2)cc1)C(=O)N[C@@H](CC(=O)O)C(=O)N[C@H](C(=O)N1CCCCC1)C(C)C [Compound 322]

- IC50 (VLA4): 50 to 10000 nM
Molecule: CC(C)C[C@H](NC(=O)Cc1ccc(NC(=O)Nc2ccccc2)cc1)C(=O)N[C@@H](CC(=O)O)C(=O)N[C@H](C(=O)N1CCC[C@H]1C(=O)NC1CCCCC1)C(C)C [Compound 324] ({NHPh-CO}-[X2]LDVP-NHcHex)

- IC50 (VLA4): 50 to 10000 nM
Molecule: CC(C)C[C@H](NC(=O)Cc1ccc(NC(=O)Nc2ccccc2)cc1)C(=O)N[C@@H](CC(=O)O)C(=O)N[C@H](C(=O)N1CCC[C@H]1C(=O)N1CCCCC1)C(C)C [Compound 325] ({NHPh-CO}-[X2]LDVP-Piperidide)

- IC50 (VLA4): < 50 nM
Molecule: CC(C)C[C@H](NC(=O)Cc1ccc(NC(=O)Nc2ccccc2)cc1)C(=O)N[C@@H](CC(=O)O)C(=O)N[C@H](C(=O)N1CCC[C@H]1C(=O)NCc1ccccc1)C(C)C [Compound 326] ({NHPh-CO}-[X2]LDVP-NHBn)

- IC50 (VLA4): < 50 nM
Molecule: CC(C)C[C@H](NC(=O)Cc1ccc(NC(=O)Nc2ccccc2)cc1)C(=O)N[C@@H](CC(=O)O)C(=O)N[C@H](C(=O)N1CCC[C@H]1C(=O)NC(C)C)C(C)C [Compound 327] ({NHPh-CO}-[X2]LDVP-NHiPr)

- IC50 (VLA4): < 50 nM
Molecule: CC(C)CNC(=O)[C@@H]1CCCN1C(=O)[C@@H](NC(=O)[C@H](CC(=O)O)NC(=O)[C@H](CC(C)C)NC(=O)Cc1ccc(NC(=O)Nc2ccccc2)cc1)C(C)C [Compound 328] ({NHPh-CO}-[X2]LDVP-NHiBu)

- IC50 (VLA4): > 10000 nM
Molecule: CC(C)CNC(=O)[C@H](CC(=O)O)NC(=O)[C@@H]1CCCN1C(=O)CCc1ccc(O)cc1 [Compound 331]

- IC50 (VLA4): < 50 nM
Molecule: CC(C)C[C@H](NC(=O)Cc1ccc(NC(=O)Nc2ccccc2F)cc1)C(=O)N[C@@H](CC(=O)O)C(=O)N[C@H](C(=O)N1CCC[C@H]1C(=O)O)C(C)C [Compound 347] ({NH(2-F-phenyl)-CO}-[X2]LDVP-OH)

- IC50 (VLA4): > 10000 nM
Molecule: CNC(=O)[C@@H](NC(=O)[C@H](CC(=O)O)NC(=O)[C@H](CC(C)C)N(C)C(=O)CCCc1ccccc1)C(C)C [Compound 348]

- IC50 (VLA4): > 10000 nM
Molecule: CNC(=O)[C@@H](NC(=O)[C@H](CC(=O)O)NC(=O)[C@H](CO)NC(=O)Cc1ccccc1)C(C)C [Compound 349] (HELM PEPTIDE1{[O=C(Cc1ccccc1)[*:2]].S.D.V.[CN[*:1]]}$$$$V2.0)

- IC50 (VLA4): > 10000 nM
Molecule: CNC(=O)[C@@H](NC(=O)[C@H](CC(=O)O)NC(=O)[C@H](CCCCN)NC(=O)Cc1ccccc1)C(C)C [Compound 350] (HELM PEPTIDE1{[O=C(Cc1ccccc1)[*:2]].K.D.V.[CN[*:1]]}$$$$V2.0)

- IC50 (VLA4): > 10000 nM
Molecule: CNC(=O)[C@H](COCc1ccccc1)NC(=O)[C@H](CC(=O)O)NC(=O)[C@H](CC(C)C)NC(=O)Cc1ccccc1 [Compound 352] (PhAc-Leu-Asp-Ser(Bn)-NHMe)

- IC50 (VLA4): > 10000 nM
Molecule: CNC(=O)[C@H](COCc1ccccc1)NC(=O)[C@H](CC(=O)O)NC(=O)[C@H](CC(C)C)NC(=O)c1ccc2ccccc2n1 [Compound 353]

- IC50 (VLA4): > 10000 nM
Molecule: CCCCNC(=O)[C@@H](NC(=O)[C@H](CC(=O)O)NC(=O)[C@H](CC(C)C)NC(=O)OC(C)(C)C)[C@@H](C)O [Compound 354] (HELM PEPTIDE1{[CC(C)(C)OC(=O)[*:2]].L.D.T.[CCCCN[*:1]]}$$$$V2.0)

— patent US6596687B1, “Cell adhesion inhibitors” (Biogen, Inc., priority 1995, dated 2003)
